Columns and labels:
[1] = biological target: T1, Receptor-interacting serine/threonine-protein kinase 2 (Homo sapiens, UniProt O43353); assay: Displacement of fluorescent tracer from N-terminus of human RIPK2 expressed in HEK293T cells after 2 hrs by NanoBRET target engagement assay; assay type: cell-based
[2] = biological target: T2, Cyclin-G-associated kinase (Homo sapiens, UniProt O14976)
T2 sequence (O14976 whole entry): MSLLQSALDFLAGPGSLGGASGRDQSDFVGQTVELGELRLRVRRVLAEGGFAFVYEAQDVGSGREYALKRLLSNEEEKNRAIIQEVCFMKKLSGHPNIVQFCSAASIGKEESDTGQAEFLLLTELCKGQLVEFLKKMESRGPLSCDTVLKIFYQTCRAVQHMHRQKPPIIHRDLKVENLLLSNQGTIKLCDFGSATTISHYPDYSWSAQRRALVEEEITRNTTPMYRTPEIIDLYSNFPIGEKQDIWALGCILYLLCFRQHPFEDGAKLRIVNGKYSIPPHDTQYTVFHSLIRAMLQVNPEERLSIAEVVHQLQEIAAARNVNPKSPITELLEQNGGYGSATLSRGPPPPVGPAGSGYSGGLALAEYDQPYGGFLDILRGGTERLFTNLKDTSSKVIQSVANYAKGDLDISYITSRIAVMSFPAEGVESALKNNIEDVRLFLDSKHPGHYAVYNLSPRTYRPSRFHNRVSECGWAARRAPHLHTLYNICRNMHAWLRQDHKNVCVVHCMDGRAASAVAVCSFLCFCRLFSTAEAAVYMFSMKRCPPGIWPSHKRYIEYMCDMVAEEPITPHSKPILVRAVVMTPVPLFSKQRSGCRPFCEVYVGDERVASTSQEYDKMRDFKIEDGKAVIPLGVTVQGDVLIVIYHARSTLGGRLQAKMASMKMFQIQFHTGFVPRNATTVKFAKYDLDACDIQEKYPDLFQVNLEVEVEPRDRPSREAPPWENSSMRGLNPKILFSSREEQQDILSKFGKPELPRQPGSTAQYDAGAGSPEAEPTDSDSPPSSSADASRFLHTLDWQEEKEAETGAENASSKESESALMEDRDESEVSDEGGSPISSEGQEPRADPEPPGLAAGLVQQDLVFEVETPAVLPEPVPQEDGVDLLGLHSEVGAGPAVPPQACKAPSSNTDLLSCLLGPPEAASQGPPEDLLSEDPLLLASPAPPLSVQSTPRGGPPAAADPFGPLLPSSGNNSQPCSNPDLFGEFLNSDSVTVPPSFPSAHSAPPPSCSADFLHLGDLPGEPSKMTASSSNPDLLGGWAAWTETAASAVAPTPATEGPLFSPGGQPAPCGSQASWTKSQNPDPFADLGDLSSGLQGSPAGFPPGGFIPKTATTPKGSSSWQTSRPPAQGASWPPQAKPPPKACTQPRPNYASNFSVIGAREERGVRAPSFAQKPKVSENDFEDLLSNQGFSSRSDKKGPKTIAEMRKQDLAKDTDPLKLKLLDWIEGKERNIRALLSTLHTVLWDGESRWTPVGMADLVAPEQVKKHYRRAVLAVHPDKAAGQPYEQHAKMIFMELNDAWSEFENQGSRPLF

[3] = biological target: T2, Cyclin-G-associated kinase; assay: Displacement of fluorescent tracer from N-terminus of human GAK expressed in HEK293T cells after 2 hrs by NanoBRET target engagement assay; assay type: cell-based
[4] = biological target: T3, Serine/threonine-protein kinase NLK (Homo sapiens, UniProt Q9UBE8); assay: Binding affinity to biotinylated full length human NLK expressed in Escherichia coli incubated for 1.5 hrs by fluorescent tracer dependent TR-FRET based competitive ligand binding displacement assay
T3 sequence (Q9UBE8 whole entry): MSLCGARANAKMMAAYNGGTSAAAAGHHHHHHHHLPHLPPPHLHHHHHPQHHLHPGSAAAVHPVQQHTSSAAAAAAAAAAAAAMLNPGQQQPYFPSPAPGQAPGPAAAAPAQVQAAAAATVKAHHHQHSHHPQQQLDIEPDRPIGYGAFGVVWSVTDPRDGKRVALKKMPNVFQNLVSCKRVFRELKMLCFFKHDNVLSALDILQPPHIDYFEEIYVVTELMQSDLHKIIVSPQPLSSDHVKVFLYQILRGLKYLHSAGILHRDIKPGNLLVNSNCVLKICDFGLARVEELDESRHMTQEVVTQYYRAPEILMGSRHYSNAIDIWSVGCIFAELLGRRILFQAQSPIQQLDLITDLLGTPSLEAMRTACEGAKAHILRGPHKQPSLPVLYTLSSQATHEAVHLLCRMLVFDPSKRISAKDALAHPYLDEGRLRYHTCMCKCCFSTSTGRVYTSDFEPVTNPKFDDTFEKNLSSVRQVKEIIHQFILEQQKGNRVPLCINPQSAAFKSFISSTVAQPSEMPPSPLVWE

[5] = biological target: Atypical kinase COQ8A, mitochondrial (Homo sapiens, UniProt Q8NI60); assay: Binding affinity to biotinylated full length human ADCK3 expressed in Escherichia coli incubated for 1.5 hrs by fluorescent tracer dependent TR-FRET based competitive ligand binding displacement assay
[6] = biological target: T2, Cyclin-G-associated kinase; assay: Binding affinity to biotinylated human GAK (13 to 338 residues) expressed in Escherichia coli incubated for 1.5 hrs by fluorescent tracer dependent TR-FRET based competitive ligand binding displacement assay
[7] = biological target: T1, Receptor-interacting serine/threonine-protein kinase 2; assay: Binding affinity to biotinylated human RIPK2 (1 to 310 residues) expressed in Escherichia coli incubated for 1.5 hrs by fluorescent tracer dependent TR-FRET based competitive ligand binding displacement assay
CWR22R = assay: Cytotoxicity against human 22Rv1 cells after 72 hrs by MTS assay; assay type: functional, cell-based; conditions: 22Rv1, 72 h
LNCaP = assay: Cytotoxicity against human LNCAP cells after 72 hrs by MTS assay; assay type: functional, cell-based
[8] = biological target: BMP-2-inducible protein kinase (Homo sapiens, UniProt Q9NSY1); assay: Binding affinity to C-terminal AVI-tagged BMP2K (unknown origin) (38 to 345 residues) expressed in Escherichia coli after 1.5 hrs by TR-FRET assay
[9] = biological target: T4, Cyclin-G-associated kinase (Homo sapiens) (UniProt O14976)
T4 sequence (whole entry): T2 sequence (O14976 whole entry)
Description: Binding affinity to GAK (unknown origin) assessed as change in melting temperature by DSF assay

[10] = biological target: AP2-associated protein kinase 1 (Homo sapiens, UniProt Q2M2I8); assay: Binding affinity to C-terminal AVI-tagged AAK1 (unknown origin) (31 to 396 residues) expressed in Escherichia coli after 1.5 hrs by TR-FRET assay
[11] = biological target: Serine/threonine-protein kinase 16 (Homo sapiens, UniProt O75716); assay: Binding affinity to C-terminal AVI-tagged STK16 (unknown origin) (13 to 305 residues) expressed in Escherichia coli after 1.5 hrs by TR-FRET assay
[12] = biological target: T4, Cyclin-G-associated kinase (Homo sapiens); assay: Binding affinity to biotinylated human GAK (13 to 338 residues) expressed in Escherichia coli at 1 uM incubated for 1.5 hrs by fluorescent tracer dependent TR-FRET based competitive ligand binding displacement assay
[13] = biological target: T2, Cyclin-G-associated kinase; assay: Binding affinity to GAK (unknown origin)
[14] = biological target: T5, Interleukin-1 receptor-associated kinase 3 (Homo sapiens, UniProt Q9Y616); assay: Binding affinity to human IRAK3 (147 to 596 residues) expressed in bacterial expression system by KINOMEscan assay
T5 sequence (Q9Y616 whole entry): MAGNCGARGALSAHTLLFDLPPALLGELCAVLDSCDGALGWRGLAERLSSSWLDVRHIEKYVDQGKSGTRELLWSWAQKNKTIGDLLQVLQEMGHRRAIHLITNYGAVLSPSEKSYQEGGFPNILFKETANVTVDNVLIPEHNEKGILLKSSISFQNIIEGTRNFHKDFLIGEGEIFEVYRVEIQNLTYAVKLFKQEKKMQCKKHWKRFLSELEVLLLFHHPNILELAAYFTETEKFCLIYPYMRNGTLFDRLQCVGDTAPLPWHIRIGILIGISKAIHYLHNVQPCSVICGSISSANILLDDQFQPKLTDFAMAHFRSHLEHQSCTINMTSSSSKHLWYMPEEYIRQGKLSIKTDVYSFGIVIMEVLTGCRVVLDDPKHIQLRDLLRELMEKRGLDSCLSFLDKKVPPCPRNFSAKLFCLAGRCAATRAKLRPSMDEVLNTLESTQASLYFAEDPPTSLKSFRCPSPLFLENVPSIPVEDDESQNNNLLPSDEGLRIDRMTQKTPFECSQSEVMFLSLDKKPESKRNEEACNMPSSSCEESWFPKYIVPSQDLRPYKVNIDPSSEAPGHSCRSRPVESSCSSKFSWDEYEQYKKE

Sequence of Atypical kinase COQ8A, mitochondrial (Q8NI60 whole entry, the tested form may be a part): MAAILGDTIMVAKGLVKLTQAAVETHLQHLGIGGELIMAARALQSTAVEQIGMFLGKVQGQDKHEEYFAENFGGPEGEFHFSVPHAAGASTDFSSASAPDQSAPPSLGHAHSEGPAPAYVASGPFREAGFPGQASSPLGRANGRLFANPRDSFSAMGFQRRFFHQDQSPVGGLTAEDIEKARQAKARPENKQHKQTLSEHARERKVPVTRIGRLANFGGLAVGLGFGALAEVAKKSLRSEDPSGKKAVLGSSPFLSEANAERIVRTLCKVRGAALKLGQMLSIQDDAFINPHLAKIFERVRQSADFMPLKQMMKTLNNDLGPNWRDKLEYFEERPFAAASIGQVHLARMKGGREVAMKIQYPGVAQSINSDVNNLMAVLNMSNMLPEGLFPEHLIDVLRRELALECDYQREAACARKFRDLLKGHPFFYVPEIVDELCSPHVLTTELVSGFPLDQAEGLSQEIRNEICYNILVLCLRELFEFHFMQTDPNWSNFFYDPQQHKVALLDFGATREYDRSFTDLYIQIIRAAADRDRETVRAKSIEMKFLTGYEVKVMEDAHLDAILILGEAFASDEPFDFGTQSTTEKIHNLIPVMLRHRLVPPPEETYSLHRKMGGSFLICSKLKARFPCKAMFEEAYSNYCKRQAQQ
Sequence of BMP-2-inducible protein kinase (Q9NSY1 whole entry, the tested form may be a part): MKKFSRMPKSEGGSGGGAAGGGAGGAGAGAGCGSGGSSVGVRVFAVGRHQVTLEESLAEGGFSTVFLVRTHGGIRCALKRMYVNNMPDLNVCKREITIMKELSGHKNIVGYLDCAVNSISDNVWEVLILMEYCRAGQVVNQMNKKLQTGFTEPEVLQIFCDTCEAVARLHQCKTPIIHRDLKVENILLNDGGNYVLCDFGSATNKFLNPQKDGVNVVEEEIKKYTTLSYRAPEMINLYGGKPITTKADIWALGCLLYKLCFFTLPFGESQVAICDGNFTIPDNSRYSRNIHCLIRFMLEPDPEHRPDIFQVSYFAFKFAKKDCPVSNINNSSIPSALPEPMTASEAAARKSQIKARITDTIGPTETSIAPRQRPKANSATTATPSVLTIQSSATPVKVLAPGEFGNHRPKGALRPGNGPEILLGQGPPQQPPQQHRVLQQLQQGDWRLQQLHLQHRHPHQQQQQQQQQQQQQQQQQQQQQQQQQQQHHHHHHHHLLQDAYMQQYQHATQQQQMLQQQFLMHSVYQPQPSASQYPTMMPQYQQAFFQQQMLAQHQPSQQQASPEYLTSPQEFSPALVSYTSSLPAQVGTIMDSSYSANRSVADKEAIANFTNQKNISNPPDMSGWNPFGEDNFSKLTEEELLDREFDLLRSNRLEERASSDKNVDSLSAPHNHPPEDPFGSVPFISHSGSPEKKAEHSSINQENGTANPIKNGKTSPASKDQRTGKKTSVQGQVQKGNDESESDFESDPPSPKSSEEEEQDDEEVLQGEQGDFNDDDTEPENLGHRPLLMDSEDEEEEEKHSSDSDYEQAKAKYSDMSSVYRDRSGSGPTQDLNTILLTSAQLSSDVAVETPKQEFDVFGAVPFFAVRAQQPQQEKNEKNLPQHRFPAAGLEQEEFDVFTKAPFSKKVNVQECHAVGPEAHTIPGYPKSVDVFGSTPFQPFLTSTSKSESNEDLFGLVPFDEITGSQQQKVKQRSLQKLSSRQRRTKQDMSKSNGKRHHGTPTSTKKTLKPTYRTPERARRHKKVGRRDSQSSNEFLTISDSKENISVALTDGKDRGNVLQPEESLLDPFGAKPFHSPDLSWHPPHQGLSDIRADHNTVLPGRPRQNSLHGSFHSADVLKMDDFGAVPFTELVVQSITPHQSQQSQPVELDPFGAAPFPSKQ
T1 sequence (O43353 whole entry): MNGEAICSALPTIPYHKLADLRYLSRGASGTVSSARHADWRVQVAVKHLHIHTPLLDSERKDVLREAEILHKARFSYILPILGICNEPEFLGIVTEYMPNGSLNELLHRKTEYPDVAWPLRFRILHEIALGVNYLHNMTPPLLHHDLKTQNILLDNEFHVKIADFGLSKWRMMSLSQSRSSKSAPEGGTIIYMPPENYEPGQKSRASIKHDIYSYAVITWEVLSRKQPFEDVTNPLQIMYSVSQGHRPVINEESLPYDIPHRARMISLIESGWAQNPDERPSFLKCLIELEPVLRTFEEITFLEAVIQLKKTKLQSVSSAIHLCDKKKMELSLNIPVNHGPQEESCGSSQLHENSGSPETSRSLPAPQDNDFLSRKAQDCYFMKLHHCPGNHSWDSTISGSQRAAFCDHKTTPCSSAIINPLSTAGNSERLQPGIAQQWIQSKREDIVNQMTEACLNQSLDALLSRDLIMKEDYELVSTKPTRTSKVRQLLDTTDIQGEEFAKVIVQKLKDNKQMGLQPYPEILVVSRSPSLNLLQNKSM
Sequence of AP2-associated protein kinase 1 (Q2M2I8 whole entry, the tested form may be a part): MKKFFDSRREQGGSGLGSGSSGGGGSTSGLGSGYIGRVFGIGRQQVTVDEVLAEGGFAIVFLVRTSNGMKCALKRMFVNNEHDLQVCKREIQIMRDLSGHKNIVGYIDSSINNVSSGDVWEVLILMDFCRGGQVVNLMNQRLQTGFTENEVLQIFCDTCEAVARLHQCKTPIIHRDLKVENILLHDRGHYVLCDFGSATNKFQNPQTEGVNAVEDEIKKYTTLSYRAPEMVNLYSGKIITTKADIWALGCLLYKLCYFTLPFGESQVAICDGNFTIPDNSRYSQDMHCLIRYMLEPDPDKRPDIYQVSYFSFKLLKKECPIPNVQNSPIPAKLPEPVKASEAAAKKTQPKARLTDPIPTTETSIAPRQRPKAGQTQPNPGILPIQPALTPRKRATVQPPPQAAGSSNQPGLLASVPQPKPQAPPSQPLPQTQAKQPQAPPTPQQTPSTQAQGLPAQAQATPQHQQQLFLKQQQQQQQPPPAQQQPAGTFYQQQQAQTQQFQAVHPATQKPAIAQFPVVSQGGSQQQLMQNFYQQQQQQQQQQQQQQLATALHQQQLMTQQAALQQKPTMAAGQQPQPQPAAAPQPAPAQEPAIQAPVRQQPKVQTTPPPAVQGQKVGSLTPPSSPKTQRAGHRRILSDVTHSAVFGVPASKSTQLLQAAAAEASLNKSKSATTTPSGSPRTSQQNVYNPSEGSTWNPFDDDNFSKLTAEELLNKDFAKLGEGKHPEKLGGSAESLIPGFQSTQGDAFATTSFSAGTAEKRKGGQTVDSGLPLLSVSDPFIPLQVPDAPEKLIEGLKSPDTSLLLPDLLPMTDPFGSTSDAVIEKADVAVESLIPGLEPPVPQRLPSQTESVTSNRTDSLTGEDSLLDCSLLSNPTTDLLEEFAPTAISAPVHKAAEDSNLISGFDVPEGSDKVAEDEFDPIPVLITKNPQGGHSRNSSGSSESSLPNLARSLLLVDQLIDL
Sequence of Serine/threonine-protein kinase 16 (O75716 whole entry, the tested form may be a part): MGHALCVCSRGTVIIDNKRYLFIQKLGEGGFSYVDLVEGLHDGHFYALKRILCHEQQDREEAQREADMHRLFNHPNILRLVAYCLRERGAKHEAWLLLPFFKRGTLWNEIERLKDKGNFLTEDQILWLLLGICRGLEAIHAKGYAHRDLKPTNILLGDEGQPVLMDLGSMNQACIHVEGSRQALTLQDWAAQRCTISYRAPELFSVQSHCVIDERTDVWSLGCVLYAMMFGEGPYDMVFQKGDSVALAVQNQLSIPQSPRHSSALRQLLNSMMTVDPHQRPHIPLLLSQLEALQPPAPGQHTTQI

Structure (SMILES) | Ki [2] [nM] | Kd [4] [nM] | Kd [5] [nM] | Kd [6] [nM] | Kd [7] [nM] | also measured
Clc1cc2cc(c1)-c1cnn3ccc(nc13)NCCOCCO2 | 3.8 |  |  |  |  | IC50 [1]: 11 nM; IC50 [3]: 60 nM
COc1cc(Nc2ccnc3ccc(I)cc23)cc(OC)c1OC |  | 660 | 190 | 7.9 | 69 | 
COc1cc(Nc2ccnc3ccc(Cl)cc23)cc(OC)c1OC |  | 650 | 170 | 6.7 | 85 | 
COc1cc(Nc2ccnc3ccccc23)cc(OC)c1OC |  | 6200 | 4100 | 59 | 2900 | 
COc1cc(-c2cnc3c(N4CCOCC4)snc3c2)cc(OC)c1OC |  |  |  |  |  | Kd [13]: 8.9 nM
COc1cc(Nc2ccnc3ccc(C#N)cc23)cc(OC)c1OC |  | 29 | 170 | 3.9 | 88 | 
COc1cc(N(C)c2ccnc3ccc(C(F)(F)F)cc23)cc(OC)c1OC | 2500 |  |  |  |  | IC50 (CWR22R): > 100000 nM; Kd [14]: 740 nM; Ki [10]: 78000 nM; IC50 (LNCaP): > 100000 nM; Ki [11]: 15000 nM; Ki [8]: 95000 nM; ΔTm [9]: -0.3 °C

Now from value to compound, other results behind:

Ki [2] [nM] | Kd [4] [nM] | Kd [5] [nM] | Kd [6] [nM] | Kd [7] [nM] | Structure (SMILES) | also measured
 | 2600 | 2000 | 21 | 170 | COc1ccc2nccc(Nc3cc(OC)c(OC)c(OC)c3)c2c1 | 
220 |  |  |  |  | CC(C)(C)S(=O)(=O)c1ccc2nccc(Nc3n[nH]c4ccc(F)cc34)c2c1 | 
8200 |  |  |  |  | CC(C)(C)S(=O)(=O)c1cc2c(Nc3ccc4scnc4c3)ncnc2cc1OCCO | IC50 [1]: 2 nM; IC50 [3]: > 10000 nM
 | 520 | 190 |  | 110 | COc1cc(Nc2ccnc3ccc(Br)cc23)cc(OC)c1OC | IC50 (CWR22R): 170 nM; IC50 (LNCaP): 650 nM; IC50 [1]: 360 nM; Ki [8]: > 100000 nM; ΔTm [9]: 7.7 °C
19000 |  |  |  |  | COc1cc(Nc2cc(C)nc3ccc(C(F)(F)F)cc23)cc(OC)c1OC | Ki [10]: > 100000 nM; Ki [11]: > 100000 nM; Ki [8]: > 100000 nM; ΔTm [9]: -0.52 °C
 | 790 |  |  |  | COc1cc(Nc2ccnc3ccc(C(F)(F)F)cc23)cc(OC)c1OC | Activity [12]: > 50%
49 |  |  |  |  | Cc1[nH]nc(Nc2ncnc3cc(OCCO)c(S(=O)(=O)C(C)(C)C)cc23)c1C | 
 | 410 | 250 | 2.9 | 42 | COc1cc2nccc(Nc3cc(OC)c(OC)c(OC)c3)c2cc1OC | 
 | 700 | 1200 | 17 | 200 | COc1ccc2c(Nc3cc(OC)c(OC)c(OC)c3)ccnc2c1 | 
 | 350 | 740 | 25 | 670 | COc1cc(Nc2ccnc3ccc(C(C)(C)C)cc23)cc(OC)c1OC | 
 | 28 | 66 | 9.7 | 96 | COc1cc(Nc2ccnc3cc(C#N)ccc23)cc(OC)c1OC | 

— ChEMBL document CHEMBL4480409, “SGC-GAK-1: A Chemical Probe for Cyclin G Associated Kinase (GAK)” (J Med Chem, 2019)
